According to patent publication US12466849B2, “Anti-viral and anti-tumoral compounds” (YEDA RESEARCH AND DEVELOPMENT CO. LTD, priority 2020, dated 2025):
In brackets after ≈: the same amount, converted by molar mass. Where two headings read alike, the source gives them in different places.

How the values were obtained:
[1] = in vitro; details: African green monkey
[2] = test system: Japanese encephalitis virus (JEV); assay: microbe, parasite or virus in culture; details: Vero 76
[3] = in vitro; details: African green monkey; remark: listed apart in the source
[4] = test system: West Nile virus (WNV); details: WNV; SI = CC50/EC50
[5] = test system: influenza A(H1N1); assay: microbe, parasite or virus in culture; details: H1N1, MDCK
[6] = test system: Influenza B; assay: microbe, parasite or virus in culture; details: MDCK
[7] = in vitro; details: African green monkey; remark: listed apart in the source
[8] = test system: Venezuelan equine encephalitis virus (VEEV); assay: microbe, parasite or virus in culture; details: Vero 76
[9] = test system: influenza A(H1N1)
[10] = in vitro; details: dog
[11] = in vitro; details: African green monkey; remark: listed apart in the source
[12] = test system: TCRV; details: TCRV; SI = CC50/EC50
[13] = in vitro; details: dog; remark: listed apart in the source
[14] = test system: enterovirus-68 (EV-68); assay: organism not typed; details: RD
[15] = test system: Powassan virus (POWV); details: POWV; SI = CC50/EC50
[16] = MRC-5 cytotoxicity assay (MTS) and visual cytotoxicity; details: human
[17] = test system: poliovirus-1 (POV-1); assay: organism not typed
[18] = test system: SARS-CoV-2; assay: microbe, parasite or virus in culture; details: Severe acute respiratory syndrome coronavirus 2, Vero 76
[19] = test system: Zika virus; details: Zika; SI = CC50/EC50
[20] = in vitro; details: African green monkey; remark: listed apart in the source
[21] = test system: dengue virus-2 (DV-2); details: DV-2; SI = CC50/EC50
[22] = test system: enterovirus-68 (EV-68); details: EV-68; SI = CC50/EC50
[23] = test system: Japanese encephalitis virus (JEV); details: JEV; SI = CC50/EC50
[24] = test system: HCMV AD169; assay: HCMV plaque reduction assay, MRC-5 cells, strain AD169; type: cell-based, Human cytomegalovirus; details: Human betaherpesvirus 5, 144 h; hCMV AD169, MRC5 cells, plaque assay, 6-days duration
[25] = test system: RSV; details: RSV; SI = CC50/EC50
[26] = test system: influenza A(H5N1)
[27] = test system: TCRV; assay: microbe, parasite or virus in culture; details: Mammarenavirus tacaribeense, Vero C1008
[28] = rat, 1 µM
[29] = in vitro; details: dog; remark: listed apart in the source
[30] = in vitro; details: African green monkey; remark: listed apart in the source
[31] = test system: Influenza B
[32] = human
[33] = test system: Rift Valley fever virus (RVFV); details: RVFV; SI = CC50/EC50
[34] = test system: Yellow fever virus (YFV); details: YFV; SI = CC50/EC50
[35] = test system: Yellow fever virus (YFV); assay: microbe, parasite or virus in culture; details: Huh-7
[36] = test system: adenovirus-5 (Ad5); details: Ad5; SI = CC50/EC50
[37] = test system: dengue virus-2 (DV-2); assay: microbe, parasite or virus in culture; details: Huh-7
[38] = test system: influenza A(H5N1); assay: microbe, parasite or virus in culture; details: H5N1, MDCK
[39] = test system: SARS-CoV; assay: microbe, parasite or virus in culture; details: Severe acute respiratory syndrome coronavirus, Vero 76
[40] = test system: adenovirus-5 (Ad5); assay: organism not typed; details: A549
[41] = test system: RSV; assay: microbe, parasite or virus in culture; details: human respiratory syncytial virus, MA104
[42] = test system: SARS-CoV; details: SARS-CoV; SI = CC50/EC50
[43] = test system: poliovirus-1 (POV-1); details: for SI: POV-1, SI = CC50/EC50
[44] = test system: Zika virus; assay: microbe, parasite or virus in culture; details: Vero 76
[45] = in vitro; details: African green monkey; remark: listed apart in the source
[46] = test system: Powassan virus (POWV); assay: microbe, parasite or virus in culture; details: BHK-21
[47] = test system: SARS-CoV-2; details: SARS-CoV-2; SI = CC50/EC50
[48] = test system: Rift Valley fever virus (RVFV); assay: microbe, parasite or virus in culture; details: Vero 76
[49] = in vitro; details: African green monkey; remark: listed apart in the source
[50] = in vitro; details: Syrian hamster
[51] = test system: West Nile virus (WNV); assay: microbe, parasite or virus in culture; details: Vero 76
[52] = in vitro; details: African green monkey; remark: listed apart in the source
[53] = test system: Venezuelan equine encephalitis virus (VEEV); details: VEEV; SI = CC50/EC50
[54] = test system: enterovirus-68 (EV-68, US/DY/14-18953); assay: organism not typed; details: RD
[55] = test system: enterovirus-68 (EV-68, US/DY/14-18953); details: EV-68; SI = CC50/EC50
[56] = in vitro; details: human

Nc1nc2c(ncn2[C@@H]2OC(CO)=CC2O)c(=O)[nH]1 (some centres unmarked) [AB21651]
CC50 [1]: > 2 mM | EC50 [2]: > 2 mM | CC50 [3]: > 2 mM | SI [4]: 0 | EC50 [5]: 440 µM | EC50 [6]: > 2 mM | CC50 [7]: > 2 mM | EC50 [8]: > 2 mM | antiviral activity against Influenza (H1N1) (in words) [9]: exhibits antiviral activity | SI ([9]; H1N1): >4.5 | CC50 [10]: > 2 mM | CC50 [11]: > 2 mM | SI [12]: 0 | CC50 [13]: > 2 mM | EC50 [14]: > 1.1 mM | SI [15]: 0 | CC50 at 6 days [16]: > 100 µM | EC50 ([17]; Vero 76): > 2 mM | EC50 [18]: > 2 mM | SI [19]: 0 | CC50 [20]: > 2 mM | SI [21]: 0 | SI [22]: 0 | SI [23]: 0 | EC50 [24]: > 100 µM | SI [25]: 0 | antiviral activity against Influenza (H5N1) (in words) ([26]; Table 11): exhibits antiviral activity | SI ([26]; influenza A(H5N1), SI = CC50/EC50): >1.5 | EC50 [27]: > 2 mM | Peak area ratio, metabolite formed (AB21649 from AB23039, AB21651 from AB23040) ([28]; 15 min): 6.93E−04 | Peak area ratio, metabolite formed (AB21649 from AB23039, AB21651 from AB23040) ([28]; 60 min): 7.68E−04 | CC50 [29]: > 2 mM | CC50 [30]: > 2 mM | SI [31]: 0 | Peak area ratio, metabolite formed (AB21649 from AB23039, AB21651 from AB23040) ([32]; 0 min, 1 µM): 6.17E−04 | Peak area ratio, metabolite formed (AB21649 from AB23039, AB21651 from AB23040) ([32]; 0 min, 1 μM): 7.04E−04 | Peak area ratio, metabolite formed (AB21649 from AB23039, AB21651 from AB23040) ([32]; 15 min, 1 μM): 1.03E−03 | Peak area ratio, metabolite formed (AB21649 from AB23039, AB21651 from AB23040) ([32]; 60 min, 1 μM): 1.50E−03 | SI [33]: 0 | SI [34]: 0 | EC50 [35]: > 2 mM | SI [36]: 0 | EC50 [37]: > 2 mM | EC50 [38]: 1.3 mM | EC50 [39]: > 2 mM | EC50 [40]: > 2 mM | EC50 [41]: > 2 mM | SI [42]: 0 | SI [43]: 0 | EC50 [44]: > 2 mM | CC50 [45]: > 2 mM | EC50 [46]: > 2 mM | SI [47]: 0 | EC50 [48]: > 2 mM | CC50 [49]: > 2 mM | CC50 [50]: > 2 mM | EC50 [51]: > 2 mM | CC50 [52]: > 2 mM | SI [53]: 0

CC(C)S(=O)(=O)n1c(N)nc2ccc(/C(=N/O)c3ccccc3)cc21 [Enviroxime]
EC50 [54]: 0.12 µg/mL (≈ 0.335 µM) | EC50 ([17]; Vero 76, read-out: EQ50): 9.5 ng/mL | SI50 (SI) [55]: 46 | CC50 [56]: 5.5 µg/mL (≈ 15.3 µM) | SI [43]: 350 | CC50 ([43]; Vero 76 cells without virus, positive control): 3.3 µg/mL (≈ 9.21 µM)
